Measurements taken from US12662484B2, “Substituted piperidines as bruton's tyrosine kinase inhibitors” (Shenzhen TargetRx, Inc., priority 2016, dated 2026).

Legend:
[1] = target: T1, BTK (Homo sapiens, UniProt Q06187); test: Kinase inhibition test (HTRF), BTK; assay type: biochemical; details: 1 nM BTK, 20 μM ATP
T1 construct: purchased Invitrogen PR5442A
Experimental: (1) Kinase Inhibition Test
• 1) Compound dilution: The test compounds were dissolved in DMSO to make a 10 mM stock solution.

[2] = target: T2, BTK C481S (Homo sapiens, UniProt Q06187, C481S); test: BTK C481S kinase inhibition test (HTRF); assay type: biochemical
T2 construct: purchased Carna 08-547
Experimental: (§1) Kinase Assay: Stock solution of the test compounds were prepared. The final concentration of DMSO in the kinase detection system was not exceed 1%. All of the procedures were carried out on ice, and the total volume of the reaction is 10 μL. Compound (4 μL), substrate and ATP (4 μL), and kinase (2 μL) were added to the wells of a 384-well plate in sequence, shaked for 30 sec, and reacted at room temperature for a proper time. Then, the resection was stopped by adding the detection reagents. The reaction mixture was reacted at room temperature for 1 hr, and detected with Microplate Reader.

[3] = target: T3, ITK (Homo sapiens, UniProt Q08881); test: ITK kinase inhibition test (HTRF); assay type: biochemical
T3 construct: purchased Carna 08-181
T3 sequence (Q08881 1-620): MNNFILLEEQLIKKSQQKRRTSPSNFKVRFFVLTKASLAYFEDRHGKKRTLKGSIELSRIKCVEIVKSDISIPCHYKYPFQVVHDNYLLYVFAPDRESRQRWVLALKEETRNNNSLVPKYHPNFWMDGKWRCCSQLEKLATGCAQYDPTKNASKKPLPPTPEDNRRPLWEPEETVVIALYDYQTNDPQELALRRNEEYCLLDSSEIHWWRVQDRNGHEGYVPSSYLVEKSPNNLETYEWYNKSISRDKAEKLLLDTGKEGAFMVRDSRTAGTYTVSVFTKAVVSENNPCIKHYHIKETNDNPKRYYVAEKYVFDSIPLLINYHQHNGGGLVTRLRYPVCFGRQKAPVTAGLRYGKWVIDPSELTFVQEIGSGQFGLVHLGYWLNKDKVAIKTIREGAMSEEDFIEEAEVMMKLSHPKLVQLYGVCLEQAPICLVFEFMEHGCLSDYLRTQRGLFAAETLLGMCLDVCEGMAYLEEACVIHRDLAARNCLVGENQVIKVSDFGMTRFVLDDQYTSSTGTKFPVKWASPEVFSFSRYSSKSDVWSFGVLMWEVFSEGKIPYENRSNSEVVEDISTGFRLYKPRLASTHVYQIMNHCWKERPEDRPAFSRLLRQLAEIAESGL
Experimental: (4) BTK C481S and ITK Kinase Inhibition Test
Reagents and materials: BTK C481S (Carna, catalog number: 08-547), ITK (Carna, catalog number: 08-181). […].
as §1, with “Reader. […].” for “Reader.”

[4] = target: T4, Phospho-BTK (Y223) in NIH/3T3 BTK WT cells (Homo sapiens, UniProt Q06187); test: Phospho-BTK (Y223) assay, NIH/3T3 BTK WT cells; assay type: cell-based; details: phospho-BTK Y223, NIH/3T3 BTK WT cells; read-out: NIH/3T3 BTK-WT pBTK IC50
T4 construct: expressed in transfected cells; host or cells: NIH/3T3
Experimental: (§2) (5) Phospho-BTK (Y223) Assay The Adherent Cells Protocol: Day 1: • 1. […] The plate was incubated overnight at 37° C., 5% CO2. Day 2: • 1. 3-fold compound dilution was prepared, and dispensed 50 μL into 100 μL cell culture. 0.5% DMSO was used as positive control of the cell growth. • 2. The plate was incubated at 37° C., 5% CO2 for 0.5 h. • 3. 50 μL of 1 mM Na3VO4 was added, and incubated at 37° C., 5% CO2 for 2 h. • 4. During the incubation, the following reagents were prepared: 1× supplemented lysis buffer: 3 vol ddH2O+1 vol 4× Lysis buffer+100× Blocking reagent. p-BTK (Y223) cryptate-antibody and p-BTK (Y223) d2-antibody working solution: 1 volume of the stock solution of each antibody frozen aliquot (stored at)−20° was added into 19 volumes of the detection buffer (stored at) 4°. • 5. At the end of the incubation, the plate was flicked to remove the medium, then added 50 μL of 1× supplemented lysis buffer, and incubated at RT for 30 min, with 500 rpm shaking. • 6. The lysate was homogenized by pipetting up and down, and transferred 16 μL to a 384-well microplate. 1× supplemented lysis buffer was used as blank control. • 7. 4 μL of premixed antibody working solutions (cryptate Ab:d2 Ab=1:1) was added. The plate was covered with a plate sealer. • 8. Incubated at RT overnight. […] Data Analysis:
(§3) The IC50 value was calculated with GraphPad Prism 7.0.
(§4) The IC50 of the compounds for phosphorylating BTK Y223 was fit using the following formula.

[5] = target: T5, Phospho-BTK (Y223) in NIH/3T3 BTK C481S cells (Homo sapiens, UniProt Q06187, C481S); test: Phospho-BTK (Y223) assay, NIH/3T3 BTK C481S cells; assay type: cell-based; details: phospho-BTK Y223, NIH/3T3 BTK C481S cells; read-out: NIH/3T3 BTK-C481S pBTK IC50
T5 construct: expressed in transfected cells; host or cells: NIH/3T3
Experimental: as §2, §3, §4

[6] = male, Sprague-Dawley, rat, in vivo
[7] = in vivo; details: male, Sprague-Dawley, rat
[8] = Pharmacokinetics and brain distribution study after a single oral administration
From the text: (6) Pharmacokinetics and Brain Distribution Study in Male Sprague Dawley Rats Following a Single Oral Administration
This study is designed to evaluate the pharmacokinetics and brain distribution of compounds disclosed herein in male Sprague Dawley Rat following a single Oral administration.
The animals were fasted overnight from 18:00 p.m. before the dosing day, and fed at 4 hr post-dose. All animals were free access to water during the study. Blood, CSF and brain were collected after each occasion of dosing at 0.5, 1, 2, and 8 hr. Blood samples (˜0.25 mL per time-point) were collected via jugular venous sinus puncture and placed in K2EDTA-containing tubes. Immediately following blood collection, the samples were inverted several times and held on wet ice before centrifugation. All the samples were centrifuged within 30 min of collection under refrigeration (set to maintain 4° C. for 5 min at 6000 rpm) to obtain plasma. The CSF samples (about 100 μL) were collected into tubes via puncture of the cisterna magna. The brain samples were rinsed with saline, drained with filter paper and removed with blood vessels, then weighted and recorded. 5-fold of the homogenate solvent (30% MeOH/70% 10 mM PBS) were used for the homogenization. All the samples were stored at −80° C., or lower until being analyzed with LC-MS/MS. Concentrations of the compounds disclosed herein in each matrix were used for PK analysis by non-compartmental method using WinNonlin.

[9] = male SD rat, 10 mg/kg oral, CSF
[10] = male SD rat, 10 mg/kg oral, brain
[11] = male SD rat, 10 mg/kg oral, plasma
[12] = male, Sprague Dawley, rat, CSF, po, 10 mg/kg
[13] = male, Sprague Dawley, rat, brain, po, 10 mg/kg
[14] = male, Sprague Dawley, rat, plasma, po, 10 mg/kg

T5 sequence (Q06187 whole entry C481S): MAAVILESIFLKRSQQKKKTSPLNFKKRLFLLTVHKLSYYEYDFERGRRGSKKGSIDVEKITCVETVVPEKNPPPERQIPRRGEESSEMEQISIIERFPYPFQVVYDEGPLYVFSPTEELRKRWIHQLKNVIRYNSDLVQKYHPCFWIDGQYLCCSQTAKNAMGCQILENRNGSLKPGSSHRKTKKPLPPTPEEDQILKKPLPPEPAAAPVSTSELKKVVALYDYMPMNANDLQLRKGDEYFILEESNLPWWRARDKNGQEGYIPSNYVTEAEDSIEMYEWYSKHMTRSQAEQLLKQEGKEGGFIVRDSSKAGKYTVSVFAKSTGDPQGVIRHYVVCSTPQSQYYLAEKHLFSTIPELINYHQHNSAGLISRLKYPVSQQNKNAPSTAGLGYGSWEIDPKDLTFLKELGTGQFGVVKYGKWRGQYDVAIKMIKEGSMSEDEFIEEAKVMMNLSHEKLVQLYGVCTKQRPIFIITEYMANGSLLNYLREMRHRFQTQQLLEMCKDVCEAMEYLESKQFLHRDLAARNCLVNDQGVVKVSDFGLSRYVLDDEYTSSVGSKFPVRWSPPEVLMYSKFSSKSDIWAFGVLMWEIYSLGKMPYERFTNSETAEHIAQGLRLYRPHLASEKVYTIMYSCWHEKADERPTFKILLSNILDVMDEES
T2 sequence (Q06187 whole entry C481S): as above
T4 sequence (Q06187 whole entry): as the sequence (Q06187 whole entry C481S) above, with S481C counted along it
T1 sequence (Q06187 whole entry): as the sequence (Q06187 whole entry C481S) above, with S481C counted along it

## C=CC(=O)N1CCC[C@@H](c2nc(-c3ccc(Oc4ccccc4)cc3)c3c(N)ncnn23)C1 [Example 8, (R)-1-(3-(4-amino-5-(4-phenoxyphenyl)imidazo[5,1-f][1,2,4]triazin-7-yl)piperidin-1-yl)prop-2-en-1-one]
[1]
  IC50: < 1 nM
[2]
  IC50: 3.85 nM
[3]
  IC50: 172 nM
[4]
  IC50: 4.86 nM
[5]
  IC50: 291 nM
[6]
  F: 16.0%
[7]; iv, 0.5 mg/kg
  AUC(0-t): 255 ng·h/mL
  Cmax: 1120 ng/mL
[7]; po, 10 mg/kg
  AUC(0-t): 820 ng·h/mL
  Cmax: 348 ng/mL
  Tmax: 20 min

## C=CC(=O)N1CCC[C@@H](c2nc(-c3ccc(Oc4ccccc4)cc3)c3c(N)nccn23)C1 [Example 7, (R)-1-(3-(8-amino-1-(4-phenoxyphenyl)imidazo[1,5-a]pyrazin-3-yl)piperidin-1-yl)prop-2-en-1-one]
[2]
  IC50: 2.46 nM
[3]
  IC50: 21.9 nM
[4]
  IC50: 7.36 nM
[5]
  IC50: 162 nM
[8]; [9]
  Cmax, CSF: 0.478 ng/mL
[8]; [10]
  Cmax, Brain: 18 ng/mL
[8]; [11]
  Cl_pred, Plasma: 586
  Vz_pred, Plasma: 85.5 L/kg
[8]; [12]
  AUC(0-t): 0.119 ng·h/mL
  Tmax: 30 min
[8]; [13]
  AUC(0-t): 16.4 ng·h/mL
  Tmax: 30 min
[8]; [14]
  AUC(0-inf): 285 ng·h/mL
  AUC(0-t): 275 ng·h/mL
  Cmax: 117 ng/mL
  MRT inf: 2.03 h
  Tmax: 30 min
  half-life: 101 min

## C=CC(=O)N1CCC[C@@H](n2nc(-c3ccc(Oc4ccccc4)cc3)c3c(N)ncnc32)C1 [Ibrutinib, reference compound]
[8]; [9]
  Cmax, CSF: 0.35 ng/mL
[8]; [10]
  Cmax, Brain: 25.4 ng/mL
[8]; [12]
  AUC(0-t): 0.0875 ng·h/mL
[8]; [14]
  AUC(0-inf): 666 ng·h/mL
  AUC(0-t): 626 ng·h/mL
  MRT inf: 2.41 h

## C=CC(=O)N1CCC[C@@H](c2nn(-c3ccc(Oc4ccccc4)cc3)c3c(N)ncnc23)C1 [Example 5, (R)-1-(3-(7-amino-1-(4-phenoxyphenyl)-1H-pyrazolo[4,3-d]pyrimidin-3-yl)piperidin-1-yl)prop-2-en-1-one]
[2]
  IC50: 6.02 nM
[3]
  IC50: 619 nM
[4]
  IC50: 5.48 nM
[5]
  IC50: 663 nM

## C=CC(=O)N1CCC[C@@H](c2cn(-c3ccc(Oc4ccccc4)cc3)c3c(N)ncnc23)C1 [Example 3, (S)-1-(3-(4-amino-5-(4-phenoxyphenyl)-5H-pyrrolo[3,2-d]pyrimidin-7-yl)piperidin-1-yl)prop-2-en-1-one]
[2]
  IC50: 10.7 nM
[3]
  IC50: 139 nM
[4]
  IC50: 6.62 nM
[5]
  IC50: 502 nM

## C=CC(=O)N1CCC[C@H](c2nn(-c3ccc(Oc4ccccc4)cc3)c3c(N)ncnc23)C1 [Example 6, (S)-1-(3-(7-amino-1-(4-phenoxyphenyl)-1H-pyrazolo[4,3-d]pyrimidin-3-yl)piperidin-1-yl)prop-2-en-1-one]
[2]
  IC50: 16.1 nM
[3]
  IC50: 4380 nM
[4]
  IC50: 18.7 nM
[5]
  IC50: > 1000 nM
